According to article PMC11083148, “Structure–Activity Relationship Studies on Highly Functionalized Pyrazole Hydrazones and Amides as Antiproliferative and Antioxidant Agents” (International Journal of Molecular Sciences, 2024):

What was measured:
A549 = experiment: MTT assay, antiproliferative activity; format: cell-based; conditions: Homo sapiens, 48h, read-out: Mean Growth Percentage
Description: (§1) Pyrazole acylhydrazones 10–13 and amides 14–22 were tested by MTT assay to evaluate their antiproliferative and cytotoxicity properties against a panel of eight tumor cell lines and normal fibroblasts.
(§2) All reagents were purchased from EuroClone, Milan, Italy). The following cell lines were used for MTT assays: SKOV-3 (ovarian adenocarcinoma, ATCC, Manassas, VA, USA); MCF-7 (breast adenocarcinoma, Biologic Bank and Cell Factory, IRCCS Policlinico San Martino, Genoa, Italy); Hep-G2 (hepatocellular carcinoma, ATCC, Manassas, VA, USA); SK-MEL28 (skin melanoma, Biologic Bank and Cell Factory, IRCCS Policlinico San Martino, Genoa, Italy), GM-6114 (embryonic human fibroblast, ATCC, Manassas, VA, USA); MDA-MB231 (breast adenocarcinoma, Biologic Bank and Cell Factory, IRCCS Policlinico San Martino, Genoa, Italy); HeLa (cervical adenocarcinoma, Biologic Bank and Cell Factory, IRCCS Policlinico San Martino, Genoa, Italy); SK-BR3 (breast andenocarcinoma, Biologic Bank and Cell Factory, IRCCS Policlinico San Martino, Genoa, Italy); A549 (lung carcinoma, Biologic Bank and Cell Factory, IRCCS Policlinico San Martino, Genoa, Italy); HUVEC (Human Umbilical Vein Endothelial Cells, ATCC, Manassas, VA, USA). All cell lines were grown in their medium with 10% FBS, 2 mM Glutamine, and 1% penstrep and incubated at 37 °C in 5% CO2 in a humidified environment. The cell lines were plated in 96-well plates at an adequate number to reach 80–90% confluence at the end of the assay. 16 h after cell plating, a 10 mM DMSO stock solution of the compounds was diluted in growth medium and added at a final working concentration of 10 μM. After 48h of incubation, a 2 mg/mL PBS solution of MTT (3-(4,5-dimethyl-2-thiazolyl)-2,5-diphenyl-2H-tetrazolium bromide) was added (30 μL/well). After 4h, the supernatant was removed, and the Formazan precipitates were dissolved in DMSO (100 μL/well). The 96-well plates were incubated for 20 min, and absorbance was measured at 570 nm using a plate reader. The results are expressed as a percentage ratio over control samples (100%) in which the cells were incubated with the same amount of DMSO but without compounds. Each value is the mean of three independent experiments run in six replicates.

Hep-G2 = experiment: MTT assay, antiproliferative activity; format: cell-based; conditions: Homo sapiens, HepG2, 48h
Description: as §1, §2

MDA-MB231 = experiment: MTT assay, antiproliferative activity; format: cell-based; conditions: Homo sapiens, MDA-MB-231, 48h
Description: as §1, §2

SK-BR3 = experiment: MTT assay, antiproliferative activity; format: cell-based; conditions: Homo sapiens, SK-BR-3, 48h
Description: as §1, §2

HeLa = experiment: MTT assay, antiproliferative activity; format: cell-based; conditions: Homo sapiens, 10 µM, 48h, read-out: Mean Growth Percentage
Description: as §1, §2
(§3) Each IC50 value is the mean of three independent experiments run in duplicate.

MCF7 = experiment: MTT assay, antiproliferative activity; format: cell-based; conditions: Homo sapiens, 10 µM, 48h
Description: as §1, §2, §3

SKMEL28 = experiment: MTT assay, antiproliferative activity; format: cell-based; conditions: Homo sapiens, SK-MEL-28, 10 µM, 48h
Description: as §1, §2, §3

SKOV3 = experiment: MTT assay, antiproliferative activity; format: cell-based; conditions: Homo sapiens, SK-OV-3, 10 µM, 48h
Description: as §1, §2, §3

GM-6114 = experiment: MTT assay, cytotoxicity on normal fibroblasts; format: cell-based; conditions: human, 48 h, 10 µM
washed platelets [1] = experiment: Platelet aggregation (thrombin-induced, Born's method); format: cell-based; conditions: Homo sapiens, 0.1 U/mL thrombin, mean ± SD, read-out: IC50 Aggregation inhibition
Description: (§4) The antioxidant properties of acylhydrazones 10–13 and pyrazolyl amides 14–22 were tested by evaluating their inhibition of platelet aggregation and ROS production (Figure 3, Table S1). In fact, human platelets could represent a fast and low-cost biological model to screen compounds as anticancer, anti-inflammatory, and antiaggregating agents. Moreover, ROS production inhibition, related to human platelet aggregation, could provide a good indication of the anti-inflammatory and antioxidant properties of the newly synthesized compounds [47, 50, 51, 52]. N-acetylcysteine (NAC) and acetyl salicylic acid (ASA) were used as reference drugs for antioxidant and antiaggregant activities, respectively.
(§5) Freshly drawn venous blood from healthy volunteers from “Centro Trasfusionale” (IRCCS Policlinico San Martino, Genoa, Italy) was collected into a 130 mM aqueous trisodium citrate anticoagulant solution (9:1). The donors claimed to not have taken drugs known to interfere with platelet function during the two weeks prior to blood collection and gave their informed consent. Whole blood was centrifuged at 100× g for 20 min to afford platelet-rich plasma that was then spun at 1100× g for 15 min. The obtained pellet was washed once with a pH 5.2 ACD solution (75 mM trisodium citrate, 42 mM citric acid, and 136 mM glucose), centrifuged at 1100× g for 15 min, and then re-suspended in pH 7.4 Hepes buffer (145 mM NaCl, 5 mM KCl, 1 mM MgSO4, 10 mM glucose, and 10 mM HEPES).
Thrombin was purchased from Sigma-Aldrich/Merck Millipore. A DMSO solution of compounds 10–22 was diluted in saline immediately before each experiment and added to the washed platelets (3.0 × 10^8/mL) at 37 °C. After 3 min, 0.1 U/mL thrombin was added, and platelet aggregation was quantified according to Born’s method using a Bio-Data Aggregometer (Bio-Data Corporation, Horsham, PA, USA). The IC50 values were calculated as detailed above.

washed platelets [2] = experiment: ROS assay in platelets (DCFH-DA, thrombin-stimulated); format: cell-based, human; conditions: Homo sapiens, Platelet, 0.1 U/mL thrombin, mean ± SD, read-out: IC50 ROS production inhibition
Description: as §4, §5
2′,7′-Dichlorofluorescein diacetate (DCFH-DA) and thrombin were purchased from Sigma-Aldrich/Merck Millipore. DMSO solutions of 10–22 were diluted in saline immediately before each experiment. ROS production was quantified by DCFH-DA, a ROS-sensitive probe that yields, upon oxidation, the fluorescent adduct DCF that is trapped inside the cells. Briefly, washed platelets (1.0 × 10^8/mL), pre-incubated with saline solutions of 10–22 for 15 min at 37 °C, were stimulated by 0.1 U/mL thrombin. Incubation was stopped by cooling samples in an ice bath, and then samples were immediately analyzed in a Merck Millipore Bioscience Guava easyCyte flow cytometer (Merk Millipore, Burlington, MA, USA). The reported IC50 values represent the molar concentration of the compounds able to inhibit 50% of the maximal aggregation induced by the agonist and are calculated as the percentage inhibition of the maximal aggregation measured in the presence of the agent compared with the measure in a control sample containing saline, carried out under the same conditions. The IC50 values were extrapolated from nonlinear regression analysis of concentration–response curves (three points) using MS Excel software (Microsoft 365 suite). Each IC50 value is the mean of six independent experiments.

| Structure (SMILES) | IC50 (washed platelets [1]) | IC50 (washed platelets [2]) | melting point | activity at 10 µM (A549) | Mean growth percentage at 10 µM (Hep-G2) | Mean growth percentage at 10 µM (MDA-MB231) | Mean growth percentage at 10 µM (SK-BR3) | activity at 10 µM (HeLa) | mean growth percentage (cell growth remaining vs control) at 10 µM (MCF7) | Mean growth percentage at 10 µM (SKMEL28) | Mean growth percentage at 10 µM (SKOV3) | Mean Growth Percentage (GM-6114) |
| --- | --- | --- | --- | --- | --- | --- | --- | --- | --- | --- | --- | --- |
| COc1ccc(/C=N/NC(=O)c2c(Nc3ccccc3)nn(CC(O)c3ccccc3)c2N)cc1OC (stereo not drawn) [13b, (E)-5-amino-N′-(3,4-dimethoxybenzylidene)-1-(2-hydroxy-2-phenylethyl)-3-(phenylamino)-1H-pyrazole-4-carbohydrazide] | 909 ± 87 µM | 433 ± 32 µM | 158 to 159 °C | 104% | 106% | 92.1% | 92.2% | 98.8% | 101% | 95.7% | 114% | 106.86% |
| COc1ccc(/C=N/NC(=O)c2c(Nc3ccccc3)nn(CC(O)c3ccccc3)c2N)cc1Oc1ccccc1 (stereo not drawn) [13c, (E)-5-amino-1-(2-hydroxy-2-phenylethyl)-N′-(4-methoxy-3-phenoxybenzylidene)-3-(phenylamino)-1H-pyrazole-4-carbohydrazide] | 313 ± 29 µM | 209 ± 15 µM | 144 to 145 °C | 94.4% | 125% | 104% | 87.5% | 97.9% | 99.8% | 104% | 129% | 99.14% |
| COc1ccc(/C=N/NC(=O)c2c(N)n[nH]c2Nc2ccccc2)cc1 [10a, (E)-3-amino-N′-(4-methoxybenzylidene)-5-(phenylamino)-1H-pyrazole-4-carbohydrazide] | 204 ± 12 µM | 111 ± 9 µM | 227 to 232 °C | 103% | 115% | 99.1% | 95.5% | 98.4% | 95.1% | 86.7% | 104% | 110.40% |
| CCOC(=O)c1c(NC(=O)c2ccc(OC)cc2)n[nH]c1Nc1ccccc1 [compound 15, Ethyl 3-(4-methoxybenzamido)-5-(phenylamino)-1H-pyrazole-4-carboxylate] | 250 ± 19 µM | 323 ± 14 µM | 155 to 157 °C | 67.9% | 85.5% | 130% | 99.8% | 105% | 65.9% | 71.7% | 88.4% | 68.40% |

More lines, main results first:

| IC50 (washed platelets [1]) | IC50 (washed platelets [2]) | melting point | Structure (SMILES) | activity at 10 µM (A549) | Mean growth percentage at 10 µM (Hep-G2) | Mean growth percentage at 10 µM (MDA-MB231) | Mean growth percentage at 10 µM (SK-BR3) | activity at 10 µM (HeLa) | mean growth percentage (cell growth remaining vs control) at 10 µM (MCF7) | Mean growth percentage at 10 µM (SKMEL28) | Mean growth percentage at 10 µM (SKOV3) | Mean Growth Percentage (GM-6114) |
| --- | --- | --- | --- | --- | --- | --- | --- | --- | --- | --- | --- | --- |
| 278 ± 27 µM | 262 ± 13 µM | 186 to 187 °C | CCOC(=O)c1c(NC(=O)c2ccc(OC)c(OC)c2)nn(C)c1Nc1ccccc1 [compound 21, Ethyl 3-(3,4-dimethoxybenzamido)-1-methyl-5-(phenylamino)-1H-pyrazole-4-carboxylate] | 112% | 97.9% | 149% | 107% | 108% | 90.3% | 84.6% | 90.2% | 85.88% |
| 268 ± 25 µM | 273 ± 17 µM | 158 to 161 °C | CCOC(=O)c1c(NC(=O)c2ccc(Cl)cc2)nn(C)c1Nc1ccccc1 [compound 18, Ethyl 3-(4-chlorobenzamido)-1-methyl-5-(phenylamino)-1H-pyrazole-4-carboxylate] | 69.6% | 78.5% | 141% | 80.9% | 91.5% | 63.5% | 68.4% | 96.9% | 72.99% |
| 187 ± 16 µM | 106 ± 9 µM | 104 to 106 °C | COc1ccc(/C=N/NC(=O)c2c(Nc3ccccc3)nn(C)c2N)cc1OC [12b, (E)-5-amino-N′-(3,4-dimethoxybenzylidene)-1-methyl-3-(phenylamino)-1H-pyrazole-4-carbohydrazide] | 95.3% | 92.7% | 91.7% | 94.2% | 92.8% | 101% | 73.3% | 98.6% | 99.78% |
| 292 ± 28 µM | 310 ± 24 µM | 143 to 145 °C | CCOC(=O)c1c(NC(=O)c2ccc(OC)c(OC)c2)n[nH]c1Nc1ccccc1 [compound 16, Ethyl 3-(3,4-dimethoxybenzamido)-5-(phenylamino)-1H-pyrazole-4-carboxylate] | 52.6% | 49.1% | 96% | 82.5% | 57.6% | 62.4% | 54% | 66.9% | 53.68% |
